Data from patent publication US10501462B2, “Pyrrolo[3,2-c]pyridine-6-amino derivatives” (CANCER RESEARCH TECHNOLOGY LIMITED, priority 2015, dated 2019).
Where two headings read alike, the source gives them in different places.

Experiments:
[1] = Human liver microsomal stability (HLM assay); assay type: in vitro ADME; details: human liver microsomes 1 mg/mL, 10 μmol/L test compound, 37° C.
Description: The human liver microsomal stability of the compounds of the invention was tested using the following procedure:
Mixed gender pooled human liver microsomes were purchased from Tebu-bio (Peterborough, U.K.). Samples contained final concentrations of 1 mg/mL microsomal protein, 3 mmol/L MgCl2, 1 mmol/L NADPH, 2.5 mmol/L, UDP-glucuronic acid, and 10 mmol/L phosphate buffer (pH 7.4) (all purchased from Sigma Aldrich, Gilingham, U.K). Reactions, at 37° C., were started by addition of 10 μmol/L test compound and were terminated at 0, 15 and 30 minutes by the addition of 3 volumes of ice-cold methanol containing internal standard. Samples were centrifuged at 2,800×g for 30 minutes at 4° C. and the supernatants analyzed. Control incubations were prepared as above with omission of cofactors. […]

[2] = system: HCT116 cells; assay: MTT cell toxicity assay; assay type: cell-based; details: Homo sapiens, HCT-116, 72 h incubation
Description: Cell proliferation assays were carried out using a colorimetric 3-(4,5-dimethylthiazol-2-yl)-2,5-diphenyltetrazolium bromide (MTT) assay (Sigma). 1.5×10^3 HCT116 cells, purchased from ATCC, were plated in 96-well plates at in 100 μL of culture medium in triplicates. Next day three fold dilutions of the compounds to be tested were made in culture medium so that, when diluted, the final concentration in the wells ranged from 0 to 10 μM. 25 μL of compounds dilutions in the medium was added to 100 μL of cells and incubated at 37° C. and 5% CO2 for 72 h. Cells were then incubated with 40 μL of 5 mg/mL MTT reagent at 37° C. for 3 h. The medium was carefully removed and crystals dissolved in 100 μL of DMSO. The absorbance was measured at 570 nm with the Wallac VICTOR2 1420 Multilabel Counter (PerkinElmer) and analysis performed to calculate the GI50 using GraphPad PRISM.

[3] = biological target: T1, full length Mps1 (Homo sapiens, UniProt P33981); assay: Measurement of inhibition of Mps1 kinase (Caliper EZ reader, H236 peptide); assay type: biochemical; details: full length Mps1, 60 min at room temperature
T1 construct: black 384-well low volume plates containing full length Mps1 (12.5 nM or 3 nM)
T1 sequence (P33981 1-857): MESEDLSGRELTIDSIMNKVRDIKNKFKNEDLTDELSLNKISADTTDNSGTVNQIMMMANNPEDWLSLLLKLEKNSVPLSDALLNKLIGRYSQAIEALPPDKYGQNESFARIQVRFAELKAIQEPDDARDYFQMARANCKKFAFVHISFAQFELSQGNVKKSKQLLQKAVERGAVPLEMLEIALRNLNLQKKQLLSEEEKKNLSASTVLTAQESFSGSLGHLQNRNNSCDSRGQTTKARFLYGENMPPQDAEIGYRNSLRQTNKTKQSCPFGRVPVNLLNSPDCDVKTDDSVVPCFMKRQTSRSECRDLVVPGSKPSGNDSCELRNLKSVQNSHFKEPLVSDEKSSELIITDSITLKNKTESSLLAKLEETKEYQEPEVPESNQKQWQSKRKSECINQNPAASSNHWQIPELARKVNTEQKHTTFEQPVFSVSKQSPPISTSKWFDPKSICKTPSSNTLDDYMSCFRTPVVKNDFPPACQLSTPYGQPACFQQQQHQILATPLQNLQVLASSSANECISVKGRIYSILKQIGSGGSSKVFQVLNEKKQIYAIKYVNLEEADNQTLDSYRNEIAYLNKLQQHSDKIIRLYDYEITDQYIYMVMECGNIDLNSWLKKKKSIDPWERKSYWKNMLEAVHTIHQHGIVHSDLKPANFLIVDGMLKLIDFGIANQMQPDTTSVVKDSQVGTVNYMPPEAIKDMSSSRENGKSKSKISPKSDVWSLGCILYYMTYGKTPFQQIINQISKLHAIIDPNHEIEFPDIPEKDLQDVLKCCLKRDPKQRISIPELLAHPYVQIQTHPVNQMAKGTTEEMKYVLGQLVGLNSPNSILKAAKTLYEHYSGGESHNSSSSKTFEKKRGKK
Description: The enzyme reaction (total volume 10 μl) was carried out in black 384-well low volume plates containing full length Mps1 (12.5 nM or 3 nM), fluorescent labelled peptide [known as H236, which has the sequence: 5FAM-[…]-CONH2] (5 μM), ATP ([…]), either DMSO (1% v/v) or the test compound (in the range 0.25 nM-100 μM in 1% DMSO) and assay buffer (50 mM HEPES (pH 7.0), 0.02% NaN3, 0.01% BSA, 0.1 mM Orthovandate, […], […], Roche protease inhibitor). The reaction was carried out for 60 min at room temperature and stopped by the addition of buffer (10 μl) containing 20 mM EDTA, 0.05% (v/v) Brij-35, in 0.1M HEPES-buffered saline (Free acid, Sigma, UK). The plate was read on a Caliper EZ reader II (Caliper Life Sciences).
The % inhibition of the compounds is calculated relative to the means of selected control wells. […] The % inhibitions at each concentration are then fitted to a 4 parameter logistic fit: y=(a+((b−a)/(1+((c/x^d)))) where a=asym min, b=asym max, c=IC50 and d=hill coefficient

[4] = Pharmacokinetic profile in mice (Mouse PK); assay type: in vivo; details: female, BALB/c, whole blood, 5 mg/kg, i.v. and p.o. at 5 mg/kg
Description: The pharmacokinetic profile of the compounds of the invention was assessed using the following procedure:
Female BALB/c mice (approximately 8 weeks old) from Charles River UK Ltd. (Margate, United Kingdom) were kept in a controlled environment with food and sterilized water available ad libitum. Animals weighed 20±3 g at the time of experiment. Dosing solutions were prepared by dissolving the compounds in 10% DMSO, 5% Tween 20 and 85% saline. The compounds were administered i.v. and p.o. at 5 mg/kg. Animals were warmed before receiving a single i.v. bolus injection into a lateral tail vein. P.o. administration was by gavage. Control animals received the vehicle alone. Groups of three mice were injected per dose route. Blood was collected at 5, 15 and 30 minutes and at 1, 2, 4 and 6 and 24 hours by serial sampling from the tail vein of individual mice after warming using sodium heparin-coated capillaries and 20 μl blood spotted onto Whatman FTA DMPK-B cards.
Calibration standards and QCs were prepared in tail vein blood. 20 μl blood spotted onto Whatman FTA DMPK-B cards. When dry, all standard, QC and sample spots were punched with a Harris Unicore 6 mm punch and 200 μl of methanol containing internal standard was added. Samples were centrifuged for 5 minutes and supernatant taken for analysis by LC-MS. […]

[5] = read-out: MTT assay HCT116 GI50
[6] = read-out: GI50 in the MTT assay

Cn1cc(C2=[N+](C(=O)OC(C)(C)C)c3cc(Nc4ccc(-c5ccnn5C)cc4Cl)ncc3C2)cn1 [Comparator 3, reference compound]
HLM Assay (% of parent compound degraded at 30 minutes) [1]: 39% | GI50 [2, 5]: 548 nM

COc1cc(-c2nnnn2C)ccc1Nc1cc2c(cn1)cc(-c1cnn(C)c1)n2C(=O)OC(C)C [Example 2, Isopropyl 6-(2-methoxy-4-(1-methyl-1H-tetrazol-5-yl)phenylamino)-2-(1-methyl-1H-pyrazol-4-yl)-1H-pyrrolo[3,2-c]pyridine-1-carboxylate]
IC50 [3]: 2.8 nM | GI50 [2, 6]: ≤ 150 nM | GI50 [2, 5]: 104 nM

Cn1cc(C2=[N+](C(=O)OC(C)(C)C)c3cc(Nc4ccc(-c5nncn5C)cc4Cl)ncc3C2)cn1 [Comparator 1, reference compound]
HLM Assay (% of parent compound degraded at 30 minutes) [1]: 22.1% | clearance [4]: 5 mL/min/kg | GI50 [2, 5]: 360 nM

COc1cc(-c2cnnn2C)ccc1Nc1cc2c(cn1)cc(-c1cnn(C)c1)n2C(=O)OC(C)C [Example 1, Isopropyl 6-(2-methoxy-4-(1-methyl-1H-1,2,3-triazol-5-yl)phenylamino)-2-(1-methyl-1H-pyrazol-4-yl)-1H-pyrrolo[3,2-c]pyridine-1-carboxylate]
IC50 [3]: 1.2 nM | clearance [4]: < 3.5 mL/min/kg | GI50 [2, 6]: ≤ 150 nM | GI50 [2, 5]: 59.4 nM
